Reference: EP0554004A2, “Cephem compounds and antibacterial agents” (KATAYAMA SEIYAKUSYO CO. Ltd., priority 1992, dated 1993)

Tests used:
clinically isolated MRSA [1] = assay: Antibacterial potency against clinically isolated MRSA (Test Example 2); type: cell-based, methicillin-resistant Staphylococcus aureus; settings: Staphylococcus aureus, 52 strains of clinically isolated MRSA
Method: A test on the antibacterial potency against clinically isolated MRSA was conducted in the following way.
(§1) 52 strains of clinically isolated MRSA were used, and MIC was determined for each of the strains according to the standard method of the Japan Chemotherapical Society as in Test Example 1. The minimum growth inhibitory concentration which inhibited growth of 50% of the strains tested was expressed as MIC50 (µg/ml), and the minimum growth inhibitory concentration which inhibited growth of 90% of the strains was expressed as MIC90 (µg/ml).
In this test, FMOX (flomoxef), IPM/CS (imipenem/cilastatin), CMZ (cefmetazole), MINO (minocycline) and DMPPC (methicillin) were used as control agents.

[2] = system: Serratia marcescens IAM 1184; assay: MIC against standard strains (Test Example 1); type: cell-based; settings: IAM1184, Muller-Hinton agar, 37°C overnight
Method: (§2) By using each test strain cultured overnight at 37°C in a Muller-Hinton broth, there was prepared a bacterial solution with a bacterial cell population of 1 x 10^6 CFU/mi of the same bouillon. The bacterial solution was inoculated into the Muller-Hinton agar media each containing respectively one test agent and, after overnight incubation at 37°C, the minimum concentration that inhibited growth of the bacteria was determined and shown as MIC also in Table 1.
(§3) Staphylococcus aureus 167 and Staphylococcus aureus 195 used in the test were MRSA. CTM (cefotiam) and FMOX (flomoxef) were used as control agents.

[3] = system: Escherichia coli CSH2 (RE45); assay: MIC against standard strains (Test Example 1); type: cell-based
Method: as §2, §3

[4] = system: Escherichia coli NIHJ JC-2; assay: MIC against standard strains (Test Example 1); type: cell-based; settings: NIHJJC2, Muller-Hinton agar, 37°C overnight
Method: as §2, §3

[5] = system: Staphylococcus aureus Smith; assay: MIC against standard strains (Test Example 1); type: cell-based; settings: Muller-Hinton agar, 37°C overnight
Method: as §2, §3

[6] = system: Psuedomonas aeruginosa IFO 3445; assay: MIC against standard strains (Test Example 1); type: cell-based; settings: Muller-Hinton agar, 37°C overnight
Method: as §2, §3

[7] = system: Bacillus subtilis ATCC 6633; assay: MIC against standard strains (Test Example 1); type: cell-based; settings: ATCC6633, Muller-Hinton agar, 37°C overnight
Method: as §2, §3

[8] = system: Proteus mirabilis IFO 3849; assay: MIC against standard strains (Test Example 1); type: cell-based; settings: IFO3849, Muller-Hinton agar, 37°C overnight
Method: as §2, §3

[9] = system: Staphylococcus aureus 209P JC-1; assay: MIC against standard strains (Test Example 1); type: cell-based; settings: Muller-Hinton agar, 37°C overnight
Method: as §2, §3

[10] = system: Morganella morganii IFO 3848; assay: MIC against standard strains (Test Example 1); type: cell-based; settings: IFO3848, Muller-Hinton agar, 37°C overnight
Method: as §2, §3

[11] = system: Citrobacter freundii ATCC 8090; assay: MIC against standard strains (Test Example 1); type: cell-based; settings: ATCC8090, Muller-Hinton agar, 37°C overnight
Method: as §2, §3

[12] = system: Escherichia coli CSH2 (RK1); assay: MIC against standard strains (Test Example 1); type: cell-based
Method: as §2, §3

[13] = system: Staphylococcus epidermidis IAM 1296; assay: MIC against standard strains (Test Example 1); type: cell-based; settings: IAM1296, Muller-Hinton agar, 37°C overnight
Method: as §2, §3

[14] = system: Pseudomonas aeruginosa NCTC 10490; assay: MIC against standard strains (Test Example 1); type: cell-based; settings: NCTC10490, Muller-Hinton agar, 37°C overnight
Method: as §2, §3

[15] = system: Staphylococcus aureus 167; assay: MIC against standard strains (Test Example 1); type: cell-based; settings: Staphylococcus aureus 167 (MRSA); Muller-Hinton agar, 37°C overnight
Method: as §2, §3

[16] = system: Klebsiella pneumoniae No. 42; assay: MIC against standard strains (Test Example 1); type: cell-based; settings: Muller-Hinton agar, 37°C overnight
Method: as §2, §3

Proteus vulgalis OX-19 = assay: MIC against standard strains (Test Example 1); type: cell-based; settings: Muller-Hinton agar, 37°C overnight
Method: as §2, §3

[17] = system: Enterobacter cloacae ATCC 13407; assay: MIC against standard strains (Test Example 1); type: cell-based; settings: ATCC13407, Muller-Hinton agar, 37°C overnight
Method: as §2, §3

[18] = system: Staphylococcus aureus 195; assay: MIC against standard strains (Test Example 1); type: cell-based; settings: Staphylococcus aureus 195 (MRSA); Muller-Hinton agar, 37°C overnight
Method: as §2, §3

[19] = system: Micrococcus luteus ATCC 9341; assay: MIC against standard strains (Test Example 1); type: cell-based; settings: ATCC9341, Muller-Hinton agar, 37°C overnight
Method: as §2, §3

[20] = system: Klebsiella pneumoniae IFO 3317; assay: MIC against standard strains (Test Example 1); type: cell-based; settings: IFO3317, Muller-Hinton agar, 37°C overnight
Method: as §2, §3

clinically isolated MRSA [21] = assay: Antibacterial potency against clinically isolated MRSA (Test Example 4); type: cell-based, methicillin-resistant Staphylococcus aureus; settings: Staphylococcus aureus, 52 strains of clinically isolated MRSA
Method: as §1
MIC 50 and MIC 90 were determined for each of the 52 strains of clinically isolated MRSA according to the same method as used in Test Example 2.
VCM (vancomycin) was used as control agent.

K. pneumoniae No. 42 = assay: MIC against standard strains (Test Example 3); type: cell-based; settings: Klebsiella pneumoniae; K. pneumoniae No. 42 (Test Example 3); read-out: MIC
Method: as §2
(§4) The minimum growth inhibitory concentration was determined for each of the 21 standard strains shown in Table 3, according to the same method as used in Test Example 1.
(§5) In the test, FMOX (flomoxef), CTM (cefotiam) and CEZ (cefazolin) were used as control agents.

K. pneumoniae IFO3317 = assay: MIC against standard strains (Test Example 3); type: cell-based; settings: Klebsiella pneumoniae; K. pneumoniae IFO3317 (Test Example 3); read-out: MIC
Method: as §2, §4, §5

A. faecalis ATCC3750 = assay: MIC against standard strains (Test Example 3); type: cell-based; settings: Alcaligenes faecalis; A. faecalis ATCC3750 (Test Example 3); read-out: MIC
Method: as §2, §4, §5

A. calcoaceticos T59 = assay: MIC against standard strains (Test Example 3); type: cell-based; settings: A. calcoaceticos T59 (Test Example 3); read-out: MIC
Method: as §2, §4, §5

S. aureus 209p JC-1 = assay: MIC against standard strains (Test Example 3); type: cell-based; settings: Staphylococcus aureus; S. aureus 209p JC-1 (Test Example 3); read-out: MIC
Method: as §2, §4, §5

E. coli CSH2 (RK1) = assay: MIC against standard strains (Test Example 3); type: cell-based; settings: Escherichia coli
Method: as §2, §4, §5

S. aureus 195 = assay: MIC against standard strains (Test Example 3); type: cell-based; settings: Staphylococcus aureus; S. aureus 195 (MRSA) (Test Example 3); read-out: MIC
Method: as §2, §4, §5

S. aureus Smith = assay: MIC against standard strains (Test Example 3); type: cell-based; settings: Staphylococcus aureus; S. aureus Smith (Test Example 3); read-out: MIC
Method: as §2, §4, §5

P. aeruginosa NCTC10490 = assay: MIC against standard strains (Test Example 3); type: cell-based; settings: Pseudomonas aeruginosa; P. aeruginosa NCTC10490 (Test Example 3); read-out: MIC
Method: as §2, §4, §5

S. epidemidis IAM1296 = assay: MIC against standard strains (Test Example 3); type: cell-based; settings: S. epidemidis IAM1296 (Test Example 3); read-out: MIC
Method: as §2, §4, §5

E. cloacae ATCC13407 = assay: MIC against standard strains (Test Example 3); type: cell-based; settings: Enterobacter cloacae; E. cloacae ATCC13407 (Test Example 3); read-out: MIC
Method: as §2, §4, §5

E. coli CSH2 (RE45) = assay: MIC against standard strains (Test Example 3); type: cell-based; settings: Escherichia coli
Method: as §2, §4, §5

P. mirabilis IFO3849 = assay: MIC against standard strains (Test Example 3); type: cell-based; settings: Proteus mirabilis; P. mirabilis IFO3849 (Test Example 3); read-out: MIC
Method: as §2, §4, §5

P. vulugaris OX-19 = assay: MIC against standard strains (Test Example 3); type: cell-based; settings: P. vulugaris OX-19 (Test Example 3); read-out: MIC
Method: as §2, §4, §5

C. freundii ATCC8090 = assay: MIC against standard strains (Test Example 3); type: cell-based; settings: Citrobacter freundii; C. freundii ATCC8090 (Test Example 3); read-out: MIC
Method: as §2, §4, §5

S. marcescens IAM1184 = assay: MIC against standard strains (Test Example 3); type: cell-based; settings: Serratia marcescens; S. marcescens IAM1184 (Test Example 3); read-out: MIC
Method: as §2, §4, §5

E. coli NIHJ JC-2 = assay: MIC against standard strains (Test Example 3); type: cell-based; settings: Escherichia coli, NIHJJC2; E. coli NIHJ JC-2 (Test Example 3); read-out: MIC
Method: as §2, §4, §5

S. aureus 167 = assay: MIC against standard strains (Test Example 3); type: cell-based; settings: Staphylococcus aureus; S. aureus 167 (MRSA) (Test Example 3); read-out: MIC
Method: as §2, §4, §5

M. Morganii IFO3848 = assay: MIC against standard strains (Test Example 3); type: cell-based; settings: Morganella morganii; M. Morganii IFO3848 (Test Example 3); read-out: MIC
Method: as §2, §4, §5

M. luteus ATCC 9341 = assay: MIC against standard strains (Test Example 3); type: cell-based; settings: Micrococcus luteus, ATCC9341; M. luteus ATCC 9341 (Test Example 3); read-out: MIC
Method: as §2, §4, §5

B. subtilis ATCC6633 = assay: MIC against standard strains (Test Example 3); type: cell-based; settings: Bacillus subtilis; B. subtilis ATCC6633 (Test Example 3); read-out: MIC
Method: as §2, §4, §5

CC(=O)c1ccc[n+](CC2=C(C(=O)[O-])N3C(=O)[C@@H](NC(=O)/C(=N\O)c4csc(N)n4)[C@H]3SC2)c1 [Compound (2), 7β-[2-(2-aminothiazol-4-yl)-2-syn-hydroxyiminoacetamido]-3-[(3-acetyl-1-pyridinio)methyl]-3-cephem-4-carboxylic acid chloride]
MIC50 (clinically isolated MRSA [1]; concentration inhibiting growth of 50% of the strains (Test Example 2)): 3.77 µg/mL | MIC90 (clinically isolated MRSA [1]; concentration inhibiting growth of 90% of the strains (Test Example 2)): 9.47 µg/mL | MIC [2]: 0.39 µg/mL | MIC [3]: 0.78 µg/mL | MIC [4]: 0.39 µg/mL | MIC [5]: 0.39 µg/mL | MIC [6]: 25 µg/mL | MIC [7]: 0.78 µg/mL | MIC [8]: 0.39 µg/mL | MIC [9]: 0.2 µg/mL | MIC [10]: 0.2 µg/mL | MIC [11]: 0.39 µg/mL | MIC [12]: 0.78 µg/mL | MIC [13]: 0.2 µg/mL | MIC [14]: 3.13 µg/mL | MIC [15]: 12.5 µg/mL | MIC [16]: 0.78 µg/mL | MIC (Proteus vulgalis OX-19): 0.39 µg/mL | MIC [17]: 1.56 µg/mL | MIC [18]: 6.25 µg/mL | MIC [19]: 0.1 µg/mL | MIC [20]: 0.39 µg/mL

Cc1nc(-c2ccc[n+](CC3=C(C(=O)[O-])N4C(=O)[C@@H](NC(=O)/C(=N\O)c5csc(N)n5)[C@H]4SC3)c2)cs1 [Compound (11), 7β-[2-(2-aminothiazol-4-yl)-2-syn-hydroxyiminoacetamido]-3-[[3-(2-methylthiazol-4-yl)-I-pyridinio]methyl]-3-cephem-4-carboxylic acid chloride]
MIC50 (clinically isolated MRSA [21]; concentration inhibiting growth of 50% of the strains (Test Example 4), read-out: MIC50): 1.85 µg/mL | MIC90 (clinically isolated MRSA [21]; concentration inhibiting growth of 90% of the strains (Test Example 4), read-out: MIC90): 3.04 µg/mL | MIC (K. pneumoniae No. 42): 0.78 µg/mL | MIC (K. pneumoniae IFO3317): 0.2 µg/mL | MIC (A. faecalis ATCC3750): 3.13 µg/mL | MIC (A. calcoaceticos T59): 25 µg/mL | MIC (S. aureus 209p JC-1): 0.2 µg/mL | MIC (E. coli CSH2 (RK1)): 0.78 µg/mL | MIC (S. aureus 195): 1.56 µg/mL | MIC (S. aureus Smith): 0.39 µg/mL | MIC (P. aeruginosa NCTC10490): 6.25 µg/mL | MIC (S. epidemidis IAM1296): 0.1 µg/mL | MIC (E. cloacae ATCC13407): 3.13 µg/mL | MIC (E. coli CSH2 (RE45)): 0.39 µg/mL | MIC (P. mirabilis IFO3849): 0.78 µg/mL | MIC (P. vulugaris OX-19): 0.2 µg/mL | MIC (C. freundii ATCC8090): 0.39 µg/mL | MIC (S. marcescens IAM1184): 0.39 µg/mL | MIC (E. coli NIHJ JC-2): 0.39 µg/mL | MIC (S. aureus 167): 3.13 µg/mL | MIC (M. Morganii IFO3848): 0.1 µg/mL | MIC (M. luteus ATCC 9341): 0.05 µg/mL | MIC (B. subtilis ATCC6633): 0.2 µg/mL
